According to patent US9695148B2, “2-pyridone compound” (TAISHO PHARMACEUTICAL CO., LTD., priority 2012, dated 2017):

Legend:
[1] = system: C57BL6/J mice; assay: Hypoglycemia test using C57BL6/J mice; format: in vivo; conditions: oral, ad libitum fed C57BL6/J mice, plasma glucose AUC 0-6 hours vs control group
Description: The test to verify the hypoglycemic effect of the test compounds was carried out in accordance with a method commonly used and represented by the method of Grimsby et. al (Science 301: 370-373, 2003).
The body weight of C57BL6/J mice (N=6), who were ad libitum fed before the test, was measured. The test compound was suspended or dissolved in the base to be administered (0.5% methyl cellulose) at a concentration of 0.06 to 20 mg/mL. The mice were orally administered with 5 mL/kg of a drug solution (equivalent to 0.3 to 100 mg/kg of the test compound) or control (only the base to be administered). About 60 μL of blood was collected from the tail vein using a capillary tube immediately before administration of the test compound and 0.5, 1, 2, 4 and 6 hours after administration of the test compound. The collected blood was centrifuged and subsequently measured for the plasma glucose concentration. The area under the curve (AUC) was calculated from changes over time in the plasma glucose concentration after administration of the test compound, and a reduction rate (%) to AUC of the control group was calculated. The dose at which an AUC decreasing percentage was 20% (ED20 value; mg/kg) was calculated from the dose response curve having the AUC reduction rate plotted on the vertical axis and the dose plotted on the horizontal axis.

[2] = target: T1, human liver GK (Homo sapiens, UniProt P35557); assay: GK activation test; format: biochemical; conditions: GST-fused human liver GK, 4 mM glucose, 2 mM ATP, absorbance at 405 nm after 15 minutes; read-out: EC50 (test compound concentration needed to activate 50% of the maximum activation ability)
T1 construct: GST (glutathione S-transferase) (N); made in house; host or cells: E. coli
T1 sequence (P35557 1-466 isoform P35557-2): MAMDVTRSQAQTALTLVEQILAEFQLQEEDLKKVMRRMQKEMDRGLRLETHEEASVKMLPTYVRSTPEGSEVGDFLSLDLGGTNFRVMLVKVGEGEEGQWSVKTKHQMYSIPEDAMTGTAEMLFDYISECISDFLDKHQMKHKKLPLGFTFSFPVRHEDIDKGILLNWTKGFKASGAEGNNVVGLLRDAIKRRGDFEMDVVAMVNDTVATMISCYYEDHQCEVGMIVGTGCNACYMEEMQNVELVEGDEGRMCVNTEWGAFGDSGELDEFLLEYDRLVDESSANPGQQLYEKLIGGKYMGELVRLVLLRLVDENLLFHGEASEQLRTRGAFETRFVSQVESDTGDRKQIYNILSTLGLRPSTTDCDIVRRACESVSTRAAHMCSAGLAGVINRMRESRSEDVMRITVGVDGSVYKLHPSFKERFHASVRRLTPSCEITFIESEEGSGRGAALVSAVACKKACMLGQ
Description: The GK activation test for the test compounds was carried out by the method of Van Schaftingen et al. (Eur. J. Biochem. 179:179-184, 1989) with partial modifications. The GK activity was measured by the change in the absorbance based on an amount of thio-NADH, which is a reduced form product converted from thio-NAD+ (thionicothinamide-adeninedinucleotide) when dehydrogenating glucose 6-phosphate, produced by GK using glucose as a matrix, with G6PDH (glucose-6-phosphate dehydrogenase).
The enzyme source used in this assay, human liver GK, was expressed in E. coli as a fusion protein with GST (glutathione S-transferase) added to the amino terminus and was purified using Glutathione Sepharose 4B (Amersham Biosciences).
The test was carried out using flat-bottom 96-well half area microplates (Corning). A solution of the test compound in dimethyl sulfoxide (DMSO) at a final concentration of 1% in DMSO and DMSO as a control were added to each well of the plates. Further, 25 mM Hepes-KOH (pH=7.1), 25 mM KCl, 2 mM MgCl2, 2 mM thio-NAD+, 4 mM glucose, 1 mM DTT (dithiothreitol), 0.01 units/μL G6PDH and 2 μg/mL human liver GK were added as the final concentrations, respectively, to each of the wells. Subsequently, ATP was added to each of the wells to give the final concentration of 2 mM, and the reaction was started. The microplates were allowed to stand at room temperature. After 15 minutes from the start of reaction, the absorbance at 405 nm was measured using an absorption spectrometer for microplate.
The GK activity maximally activated by the test compound was taken as the maximum activation ability, and the test compound concentration (nM) needed to activate 50% of that maximum activation ability was expressed as EC50.

| EC50 [2] | SMILES | ED20 (dose at which the plasma glucose AUC decreasing percentage was 20%) [1] |
| --- | --- | --- |
| 520 nM | CCc1ccc([C@@H](C[C@H]2CCC(=O)N2)c2ccc(C3CC3)c(=O)[nH]2)cc1 [Compound A] | 11.5 mg/kg |
| 1330 nM | CC(F)(F)c1ccc([C@@H](C[C@H]2CCC(=O)N2)c2ccc(C3CC3)c(=O)[nH]2)cc1 (single isomer, unassigned) [Compound B] | 15.6 mg/kg |
| 597 nM | O=C1CC[C@H](C[C@H](c2ccc(C(F)F)cc2)c2ccc(C3CC3)c(=O)[nH]2)N1 [Compound C] | 32.0 mg/kg |
| 295 nM | CC(F)(F)c1ccc([C@@H](C[C@H]2CCC(=O)N2)c2ccc(C3CC3)c(=O)[nH]2)cc1 [Compound [1], 3-cyclopropyl-6-{(1R)-1-[4-(1,1-difluoroethyl)phenyl]-2-[(2R)-5-oxopyrrolidin-2-yl]ethyl}pyridin-2(1H)-one] | 4.2 mg/kg |
